In the supplement of paper PMC10307832:

Experiments:
Experiment in all cases: relative viability (nuclei count vs DMSO), 5 days (fraction); higher = more cells survive
CUDC-101 + Tozasertib = compound: C#Cc1cccc(Nc2ncnc3cc(OC)c(OCCCCCCC(=O)NO)cc23)c1 [CUDC-101] + Cc1cc(Nc2cc(N3CCN(C)CC3)nc(Sc3ccc(NC(=O)C4CC4)cc3)n2)n[nH]1 [Tozasertib] (partner 0.1 µM)
Method in brief: (§1)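 Lung cancer cell lines were seeded in 1536-well plates and dosed by pin tool the next day, with either a single drug or a fixed anchor-drug dose combined with five library-drug doses (not always all listed) spaced in √10 steps. Five days later, one step fixed the cells and stained their nuclei (final 0.05% Triton X-100, 1% formaldehyde, 1 ug/ml Hoechst), and nuclei were counted on 4× images. Relative viability is the nuclei count in treated wells divided by the count in vehicle wells, and each value is the median of duplicate plates.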

CUDC-101 + OSI-027 = compound: C#Cc1cccc(Nc2ncnc3cc(OC)c(OCCCCCCC(=O)NO)cc23)c1 [CUDC-101] + COc1cccc2cc(-c3nc([C@H]4CC[C@H](C(=O)O)CC4)n4ncnc(N)c34)[nH]c12 [OSI-027] (partner 0.5 µM)
Method in brief: as §1

Vandetanib + Olaparib = compound: COc1cc2/c(=N/c3ccc(Br)cc3F)nc[nH]c2cc1OCC1CCN(C)CC1 [Vandetanib] + O=C(c1cc(Cc2n[nH]c(=O)c3ccccc23)ccc1F)N1CCN(C(=O)C2CC2)CC1 [Olaparib] (partner 8 µM)
Method in brief: as §1

CUDC-101 + Foretinib = compound: C#Cc1cccc(Nc2ncnc3cc(OC)c(OCCCCCCC(=O)NO)cc23)c1 [CUDC-101] + COc1cc2c(Oc3ccc(NC(=O)C4(C(=O)Nc5ccc(F)cc5)CC4)cc3F)ccnc2cc1OCCCN1CCOCC1 [Foretinib] (partner 0.25 µM)
Method in brief: as §1

Cell Line	relative viability (CUDC-101 + Tozasertib; first compound 0.01 µM)	relative viability (CUDC-101 + Tozasertib; first compound 0.03162 µM)	relative viability (CUDC-101 + Tozasertib; first compound 0.1 µM)	relative viability (CUDC-101 + Tozasertib; first compound 0.3162 µM)	relative viability (CUDC-101 + Tozasertib; first compound 1 µM)	relative viability (CUDC-101 + OSI-027; first compound 0.01 µM)	relative viability (CUDC-101 + OSI-027; first compound 0.03162 µM)	relative viability (CUDC-101 + OSI-027; first compound 0.1 µM)	relative viability (CUDC-101 + OSI-027; first compound 0.3162 µM)	relative viability (CUDC-101 + OSI-027; first compound 1 µM)	relative viability (Vandetanib + Olaparib; first compound 0.02 µM)	relative viability (Vandetanib + Olaparib; first compound 0.06325 µM)	relative viability (Vandetanib + Olaparib; first compound 0.2 µM)	relative viability (Vandetanib + Olaparib; first compound 0.6325 µM)	relative viability (Vandetanib + Olaparib; first compound 2 µM)	relative viability (CUDC-101 + Foretinib; first compound 0.01 µM)	relative viability (CUDC-101 + Foretinib; first compound 0.03162 µM)	relative viability (CUDC-101 + Foretinib; first compound 0.1 µM)	relative viability (CUDC-101 + Foretinib; first compound 0.3162 µM)	relative viability (CUDC-101 + Foretinib; first compound 1 µM)
LC-2-ad	0.445	0.47	0.449	0.326	0.276	0.823	1.04	0.985	0.827	0.339	0.673	0.711	0.695	0.792	0.714	0.863	0.947	0.904	0.899	0.52
NCI-H1299											0.983	0.928	0.924	0.933	0.981	1.08	1.06	1.13	1.12	1.04
NCI-H2009	0.8	0.695	0.778	0.801	0.639	0.672	0.737	0.739	0.8	0.494	0.649	0.668	0.658	0.688	0.716	1.2	1.18	1.36	1.28	1.14
NCI-H1395	0.809	0.717	0.747	0.744	0.627	0.746	0.629	0.628	0.727	0.508	0.511	0.487	0.442	0.523	0.494	1.05	0.846	1.01	1.09	0.844
NCI-H1650	0.398	0.318	0.305	0.383	0.267	0.661	0.531	0.517	0.577	0.231	0.753	0.827	0.756	0.792	0.572	1.09	0.615	0.976	0.905	0.59
NCI-H2085	0.708	0.786	0.882	0.726	0.705	0.577	0.646	0.728	0.835	0.535	0.77	0.72	0.808	0.769	0.712	0.964	0.929	0.823	0.996	0.697
NCI-H1666	0.594	0.564	0.676	0.565	0.507	0.85	0.867	0.837	0.857	0.739	0.787	0.749	0.812	0.758	0.754	0.958	0.979	1	1.06	0.932
NCI-H1993	0.592	0.517	0.624	0.53	0.502	0.61	0.552	0.625	0.626	0.657	1.06	0.977	1.16	0.911	0.893	0.862	0.791	0.839	0.734	0.612
NCI-H1437	0.41	0.332	0.41	0.429	0.361	0.857	0.876	0.886	0.952	0.662	0.588	0.667	0.643	0.615	0.612	1.38	1.08	1.27	1.38	1.27
ABC-1	0.139	0.186	0.189	0.166	0.128	0.601	0.461	0.454	0.373	0.142	0.538	0.617	0.774	0.904	0.726	1.04	0.797	1.07	0.704	0.519
NCI-H727	0.56	0.556	0.56	0.673	0.407	0.633	0.601	0.7	0.578	0.369	0.727	0.68	0.662	0.739	0.621	0.975	0.85	0.685	0.778	0.424
NCI-H1792						0.777	0.649	0.731	0.715	0.629	0.425	0.442	0.469	0.66	0.409					
IA-LM											0.969	0.874	0.864	0.867	0.849	1.27	1.1	1.12	1.11	0.657
NCI-H522	0.602	0.53	0.539	0.528	0.366	0.638	0.64	0.67	0.703	0.549	0.604	0.703	0.689	0.743	0.605					
Calu-6											0.526	0.552	0.579	0.572	0.563	0.932	0.857	0.878	0.823	0.714
NCI-H1703											0.458	0.267	0.385	0.342	0.303	0.323		0.353	0.402	0.424
NCI-H1623	0.406	0.379	0.389	0.356	0.272	0.452	0.441	0.33	0.329	0.239						0.847	0.821	0.711	0.911	0.483
NCI-H1563						0.732	0.751	0.783	0.728	0.675						0.925	0.872	0.851	0.895	0.87
EBC-1											0.698	0.603	0.69	0.782	0.693	0.0994	0.109	0.109	0.0873	0.0665
NCI-H1648	0.64		0.636	0.362	0.221	0.265		0.243	0.266	0.254	0.591	0.771	0.91	1.15	0.761					
